From ChEMBL document CHEMBL1909046, “DrugMatrix in vitro pharmacology data”

Key:
[1] = biological target: Receptor tyrosine-protein kinase erbB-2 (Homo sapiens, UniProt P04626); assay: biochemical; assay type: cell-based, Insect cells;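 further: inhibition of HER2 kinase enzyme activity, measured with Poly(Glu:Tyr) as the phosphorylation substrate; in other assays of this panel Not Active means under 50% inhibition at 10 µM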
[2] = biological target: Mu-type opioid receptor (Homo sapiens, UniProt P35372); assay: DRUGMATRIX: Opiate mu (OP3, MOP) radioligand binding (ligand: [3H] Diprenorphine); assay type: cell membranes, CHO-K1, Membrane; details: Not Active = under 50% inhibition at 10 µM
Chain of Mu-type opioid receptor (P35372 whole entry): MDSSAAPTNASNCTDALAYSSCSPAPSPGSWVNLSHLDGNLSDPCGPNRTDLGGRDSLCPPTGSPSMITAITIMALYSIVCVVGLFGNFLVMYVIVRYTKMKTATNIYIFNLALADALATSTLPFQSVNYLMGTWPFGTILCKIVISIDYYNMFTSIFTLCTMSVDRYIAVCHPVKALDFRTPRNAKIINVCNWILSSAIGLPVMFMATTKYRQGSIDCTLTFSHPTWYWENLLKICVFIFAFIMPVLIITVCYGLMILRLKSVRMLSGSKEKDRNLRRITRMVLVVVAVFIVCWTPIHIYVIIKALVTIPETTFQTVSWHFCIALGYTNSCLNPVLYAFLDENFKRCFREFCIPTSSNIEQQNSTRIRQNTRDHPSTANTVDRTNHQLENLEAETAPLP

[3] = biological target: 5-hydroxytryptamine receptor 6 (Homo sapiens, UniProt P50406); assay type: cell membranes, HeLa, Membrane; further: in other assays of this panel Not Active means under 50% inhibition at 10 µM
Chain of 5-hydroxytryptamine receptor 6 (P50406 whole entry): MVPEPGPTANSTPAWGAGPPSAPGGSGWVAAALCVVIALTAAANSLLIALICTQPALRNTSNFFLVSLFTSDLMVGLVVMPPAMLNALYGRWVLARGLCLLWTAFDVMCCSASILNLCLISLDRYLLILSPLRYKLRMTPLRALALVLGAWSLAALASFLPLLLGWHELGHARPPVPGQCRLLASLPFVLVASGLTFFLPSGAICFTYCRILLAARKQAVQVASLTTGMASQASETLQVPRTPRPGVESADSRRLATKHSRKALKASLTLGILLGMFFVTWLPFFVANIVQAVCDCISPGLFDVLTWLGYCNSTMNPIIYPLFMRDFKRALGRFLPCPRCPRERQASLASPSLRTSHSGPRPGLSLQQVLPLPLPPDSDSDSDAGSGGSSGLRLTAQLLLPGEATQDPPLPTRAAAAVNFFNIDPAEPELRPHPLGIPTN

[4] = biological target: T1, C-C chemokine receptor type 4 (Homo sapiens, UniProt P51679); assay type: cell membranes, Chem-1, Membrane; further: in other assays of this panel Not Active means under 50% inhibition at 10 µM
T1 sequence (P51679 whole entry): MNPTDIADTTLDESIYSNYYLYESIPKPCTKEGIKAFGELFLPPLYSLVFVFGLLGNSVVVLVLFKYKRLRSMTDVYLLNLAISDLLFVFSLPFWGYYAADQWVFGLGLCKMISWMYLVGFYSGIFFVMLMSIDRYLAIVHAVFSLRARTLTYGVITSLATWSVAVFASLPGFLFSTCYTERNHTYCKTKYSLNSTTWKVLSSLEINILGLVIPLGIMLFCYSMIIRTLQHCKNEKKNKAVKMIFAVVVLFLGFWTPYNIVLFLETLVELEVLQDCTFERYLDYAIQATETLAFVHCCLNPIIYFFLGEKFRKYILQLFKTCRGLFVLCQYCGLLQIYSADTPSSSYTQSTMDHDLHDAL

[5] = biological target: Melanocortin receptor 4 (Homo sapiens, UniProt P32245); assay type: cell membranes, HEK293, Membrane; further: in other assays of this panel Not Active means under 50% inhibition at 10 µM
Chain of Melanocortin receptor 4 (P32245 whole entry): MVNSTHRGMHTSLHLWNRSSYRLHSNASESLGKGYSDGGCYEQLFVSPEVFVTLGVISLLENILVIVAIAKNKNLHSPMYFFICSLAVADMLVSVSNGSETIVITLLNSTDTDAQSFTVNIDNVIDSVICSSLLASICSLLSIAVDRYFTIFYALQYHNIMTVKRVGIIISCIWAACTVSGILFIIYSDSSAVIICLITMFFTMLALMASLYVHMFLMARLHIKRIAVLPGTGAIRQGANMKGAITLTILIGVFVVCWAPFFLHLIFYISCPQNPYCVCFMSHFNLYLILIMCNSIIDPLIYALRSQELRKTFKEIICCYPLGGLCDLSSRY

[6] = DRUGMATRIX: GABAA, Muscimol, Central radioligand binding (ligand: [3H] Muscimol); assay type: cell membranes, Rattus norvegicus, Wistar, Brain, Membrane; details: Not Active = under 50% inhibition at 10 µM

## COc1nc(C)nc(Cl)c1NC1=NCCN1 [MOXONIDINE]
[1]; insect cells
  IC50: Not Active
[2]; cho-k1
  IC50: Not Active
[3]; hela
  IC50: Not Active
[4]; chem-1
  IC50: Not Active
[5]; hek293
  IC50: Not Active
[6]
  IC50: Not Active
  Ki: Not Active

## N[C@@H](Cc1ccc(O)c(O)c1)C(=O)O [LEVODOPA]
[1]; insect cells
  IC50: Not Active
[2]; cho-k1
  IC50: Not Active
[3]; hela
  IC50: Not Active
[4]; chem-1
  IC50: Not Active
[5]; hek293
  IC50: Not Active
[6]
  IC50: Not Active
  Ki: Not Active

## OCCN(CCO)c1nc(N2CCCCC2)c2nc(N(CCO)CCO)nc(N3CCCCC3)c2n1 [DIPYRIDAMOLE]
[1]; insect cells
  IC50: Not Active
[2]; cho-k1
  IC50: Not Active
[3]; hela
  IC50: Not Active
[4]; chem-1
  IC50: Not Active
[5]; hek293
  IC50: Not Active
[6]
  IC50: Not Active
  Ki: Not Active

## Cn1ccnc1S [METHIMAZOLE]
[1]; insect cells
  IC50: Not Active
[2]; cho-k1
  IC50: Not Active
[3]; hela
  IC50: Not Active
[4]; chem-1
  IC50: Not Active
[5]; hek293
  IC50: Not Active
[6]
  IC50: Not Active
  Ki: Not Active

## CC(=O)[C@@]1(O)CC[C@H]2[C@@H]3C[C@H](C)C4=CC(=O)CC[C@]4(C)[C@H]3CC[C@@]21C
[1]; insect cells
  IC50: Not Active
[2]; cho-k1
  IC50: Not Active
[3]; hela
  IC50: Not Active
[4]; chem-1
  IC50: Not Active
[5]; hek293
  IC50: Not Active
[6]
  IC50: Not Active
  Ki: Not Active

## C=CCC1(C(C)CCC)C(=O)NC(=O)NC1=O (stereo unspecified) [SECOBARBITAL]
[1]; insect cells
  IC50: Not Active
[2]; cho-k1
  IC50: Not Active
[3]; hela
  IC50: Not Active
[4]; chem-1
  IC50: Not Active
[5]; hek293
  IC50: Not Active
[6]
  IC50: Not Active
  Ki: Not Active

## C[C@@H]1CN(c2c(F)c(N)c3c(=O)c(C(=O)O)cn(C4CC4)c3c2F)C[C@H](C)N1 [SPARFLOXACIN]
[1]; insect cells
  IC50: Not Active
[2]; cho-k1
  IC50: Not Active
[3]; hela
  IC50: Not Active
[4]; chem-1
  IC50: Not Active
[5]; hek293
  IC50: Not Active
[6]
  IC50: Not Active
  Ki: Not Active

## O=c1ncn2nc(Sc3ccc(F)cc3F)ccc2c1-c1c(Cl)cccc1Cl [NEFLAMAPIMOD]
[1]; insect cells
  IC50: Not Active
[2]; cho-k1
  IC50: Not Active
[3]; hela
  IC50: Not Active
[4]; chem-1
  IC50: Not Active
[5]; hek293
  IC50: Not Active
[6]
  IC50: Not Active
  Ki: Not Active

## Nc1c2c(nc3ccccc13)CCCC2 [TACRINE]
[1]; insect cells
  IC50: Not Active
[2]; cho-k1
  IC50: Not Active
[3]; hela
  IC50: Not Active
[4]; chem-1
  IC50: Not Active
[5]; hek293
  IC50: Not Active
[6]
  IC50: Not Active
  Ki: Not Active

## CO[C@H]1/C=C/O[C@@]2(C)Oc3c(C)c(O)c4c(O)c(c(/C=N/N5CCN(C)CC5)c(O)c4c3C2=O)NC(=O)/C(C)=C\C=C\[C@H](C)[C@H](O)[C@@H](C)[C@@H](O)[C@@H](C)[C@H](OC(C)=O)[C@@H]1C [RIFAMPIN]
[1]; insect cells
  IC50: Not Active
[2]; cho-k1
  IC50: Not Active
[3]; hela
  IC50: Not Active
[4]; chem-1
  IC50: Not Active
[5]; hek293
  IC50: Not Active
[6]
  IC50: Not Active
  Ki: Not Active

## CCCCc1oc2ccccc2c1C(=O)c1cc(I)c(OCCN(CC)CC)c(I)c1 [AMIODARONE]
[1]; read-out: IC50
  IC50: 9.15 µM
[3]; read-out: IC50
  IC50: 19400 nM
[3]; read-out: Ki
  Ki: 9030 nM
[4]; read-out: IC50
  IC50: 21.8 µM
[4]; read-out: Ki
  Ki: 11.4 µM

## CCOC(=O)N1CCC(=C2c3ccc(Cl)cc3CCc3cccnc32)CC1 [LORATADINE]
[1]; insect cells
  IC50: Not Active
[2]; cho-k1
  IC50: Not Active
[3]; hela
  IC50: Not Active
[4]; chem-1
  IC50: Not Active
[5]; hek293
  IC50: Not Active
[6]
  IC50: Not Active
  Ki: Not Active

## N[C@@H](Cc1ccc(N(CCCl)CCCl)cc1)C(=O)O
[1]; insect cells
  IC50: Not Active
[3]; hela
  IC50: Not Active
[4]; chem-1
  IC50: Not Active
[5]; hek293
  IC50: Not Active
[6]
  IC50: Not Active
  Ki: Not Active

## Cc1noc(NS(=O)(=O)c2ccc(N)cc2)c1C [SULFISOXAZOLE]
[1]; insect cells
  IC50: Not Active
[2]; cho-k1
  IC50: Not Active
[3]; hela
  IC50: Not Active
[4]; chem-1
  IC50: Not Active
[5]; hek293
  IC50: Not Active
[6]
  IC50: Not Active
  Ki: Not Active

## N[C@@H](Cc1cc(I)c(Oc2ccc(O)c(I)c2)c(I)c1)C(=O)O [LIOTHYRONINE]
[1]; insect cells
  IC50: Not Active
[2]; cho-k1
  IC50: Not Active
[3]; hela
  IC50: Not Active
[4]; chem-1
  IC50: Not Active
[5]; hek293
  IC50: Not Active

## c1ccc([C@H]2CN3CCSC3=N2)cc1 [LEVAMISOLE]
[1]; insect cells
  IC50: Not Active
[2]; cho-k1
  IC50: Not Active
[3]; hela
  IC50: Not Active
[4]; chem-1
  IC50: Not Active
[5]; hek293
  IC50: Not Active
[6]
  IC50: Not Active
  Ki: Not Active

## CC1(C)O[C@@H]2C[C@H]3[C@@H]4CCC5=CC(=O)C=C[C@]5(C)[C@@]4(F)[C@@H](O)C[C@]3(C)[C@]2(C(=O)CO)O1 [TRIAMCINOLONE ACETONIDE]
[1]; insect cells
  IC50: Not Active
[2]; cho-k1
  IC50: Not Active
[3]; hela
  IC50: Not Active
[4]; chem-1
  IC50: Not Active
[5]; hek293
  IC50: Not Active
[6]
  IC50: Not Active
  Ki: Not Active

## N#CC(C#N)=Cc1ccc(O)c(O)c1 [TYRPHOSTIN 23]
[1]; insect cells
  IC50: Not Active
[2]; cho-k1
  IC50: Not Active
[3]; hela
  IC50: Not Active
[4]; chem-1
  IC50: Not Active
[5]; hek293
  IC50: Not Active
[6]
  IC50: Not Active
  Ki: Not Active

## Nc1nc2nc[nH]c2c(=S)[nH]1 [THIOGUANINE]
[1]; insect cells
  IC50: Not Active
[2]; cho-k1
  IC50: Not Active
[3]; hela
  IC50: Not Active
[4]; chem-1
  IC50: Not Active
[5]; hek293
  IC50: Not Active
[6]
  IC50: Not Active
  Ki: Not Active

## NS(=O)(=O)c1cc2c(cc1Cl)NC(C(Cl)Cl)NS2(=O)=O (stereo unspecified) [TRICHLORMETHIAZIDE]
[1]; insect cells
  IC50: Not Active
[2]; cho-k1
  IC50: Not Active
[3]; hela
  IC50: Not Active
[4]; chem-1
  IC50: Not Active
[5]; hek293
  IC50: Not Active
[6]
  IC50: Not Active
  Ki: Not Active

## CC(C)N1CCN(c2ccc(OCC3COC(Cn4cncn4)(c4ccc(Cl)cc4Cl)O3)cc2)CC1 (stereo unspecified) [TERCONAZOLE]
[1]; insect cells
  IC50: Not Active
[2]; cho-k1
  IC50: Not Active
[3]; hela
  IC50: Not Active
[4]; chem-1
  IC50: Not Active
[5]; hek293
  IC50: Not Active
[6]
  IC50: Not Active
  Ki: Not Active

## CN1CCN(CCCN2c3ccccc3Sc3ccc(Cl)cc32)CC1 [PROCHLORPERAZINE]
[1]; insect cells
  IC50: Not Active
[2]; cho-k1
  IC50: Not Active
[3]; read-out: IC50
  IC50: 267 nM
[3]; read-out: Ki
  Ki: 124 nM
[4]; chem-1
  IC50: Not Active
[5]; hek293
  IC50: Not Active

## CC(C)(C)NC(=O)[C@@H]1C[C@@H]2CCCC[C@@H]2CN1C[C@@H](O)[C@H](Cc1ccccc1)NC(=O)[C@H](CC(N)=O)NC(=O)c1ccc2ccccc2n1
[1]; insect cells
  IC50: Not Active
[3]; hela
  IC50: Not Active
[4]; chem-1
  IC50: Not Active
[5]; hek293
  IC50: Not Active
[6]
  IC50: Not Active
  Ki: Not Active

## SODIUM NITROPRUSSIDE
[1]; insect cells
  IC50: Not Active
  Ki: Not Active
[3]; hela
  IC50: Not Active
  Ki: Not Active
[4]; chem-1
  IC50: Not Active
  Ki: Not Active
[5]; hek293
  IC50: Not Active
  Ki: Not Active
[6]
  IC50: Not Active
  Ki: Not Active

## NC[C@H]1CC[C@H](C(=O)O)CC1 [TRANEXAMIC ACID]
[1]; insect cells
  IC50: Not Active
[2]; cho-k1
  IC50: Not Active
[3]; hela
  IC50: Not Active
[4]; chem-1
  IC50: Not Active
[5]; hek293
  IC50: Not Active
[6]
  IC50: Not Active
  Ki: Not Active

## CC/C(=C(\c1ccccc1)c1ccc(OCCN(C)C)cc1)c1ccccc1 [TAMOXIFEN]
[1]; read-out: IC50
  IC50: 2.95 µM
[2]
  Ki: 7.14 µM
[2]; read-out: IC50
  IC50: 17.6 µM
[3]; read-out: IC50
  IC50: 2680 nM
[3]; read-out: Ki
  Ki: 1240 nM
[4]; chem-1
  IC50: Not Active
[5]; read-out: IC50
  IC50: 30.5 µM
[5]; read-out: Ki
  Ki: 29.3 µM

## CC[C@@H](CO)NC(=O)[C@@H]1C=C2c3cccc4[nH]cc(c34)C[C@H]2N(C)C1 [METHYLERGONOVINE]
[1]; insect cells
  IC50: Not Active
[3]; read-out: IC50
  IC50: 2.54 nM
[3]; read-out: Ki
  Ki: 1.18 nM
[4]; chem-1
  IC50: Not Active
[5]; hek293
  IC50: Not Active
[6]
  IC50: Not Active
  Ki: Not Active

## Cc1nc2n(c(=O)c1CCN1CCC(c3noc4cc(F)ccc34)CC1)CCCC2 [RISPERIDONE]
[1]; insect cells
  IC50: Not Active
[2]; cho-k1
  IC50: Not Active
[3]; hela
  IC50: Not Active
[4]; chem-1
  IC50: Not Active
[5]; hek293
  IC50: Not Active
